From patent US8664203B2, “Thiazole derivatives and their use as P2Y12 receptor antagonists” (Actelion Pharmaceuticals Ltd., priority 2009, dated 2014)

Biological target: T1, human P2Y12 receptor (Homo sapiens, UniProt Q9H244)
T1 construct: expressed in transfected cells; host or cells: CHO cells
Assay: P2Y12 receptor binding assay
Details: CHO cells with recombinant expression of the human P2Y12 receptor; tritium-labeled 2-methyl-S-ADP; RT, 2 hours
Method: P2Y12 Receptor Binding Assay
Chinese Hamster Ovary (CHO) cells with recombinant expression of the human P2Y12 receptor were cultured in 24 well cell-culture plates. Cells were washed three times with binding buffer (50 mM Tris pH 7.4, 100 mM NaCl, 1 mM EDTA, 0.5% BSA). The cells were then incubated with 0.5 ml per well binding buffer containing tritium-labeled 2-methyl-thio-adenosine 5′-diphosphate (2-methyl-S-ADP) (between 100′000 and 300′000 dpm per well) and various concentrations of test compounds. After incubation at RT for 2 hours, cells were washed three times with binding buffer. Then, cells were solubilized by addition of 0.5 ml solubilization buffer (SDS, NaOH, EDTA). The content of each well was then transferred into beta-counter vials and 2.0 ml of Ultima Gold Scintillation liquid was added.

T1 sequence (Q9H244 whole entry): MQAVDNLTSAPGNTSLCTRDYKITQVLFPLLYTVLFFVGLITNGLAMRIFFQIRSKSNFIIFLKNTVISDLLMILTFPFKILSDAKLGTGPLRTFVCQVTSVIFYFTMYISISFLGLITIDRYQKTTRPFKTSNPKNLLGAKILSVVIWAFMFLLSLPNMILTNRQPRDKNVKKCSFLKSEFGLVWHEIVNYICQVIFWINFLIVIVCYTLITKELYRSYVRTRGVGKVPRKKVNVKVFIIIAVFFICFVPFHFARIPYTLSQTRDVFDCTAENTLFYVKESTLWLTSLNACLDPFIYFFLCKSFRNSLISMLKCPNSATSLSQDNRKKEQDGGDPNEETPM

| SMILES | IC50 [nM] |
| --- | --- |
| CCCCOC(=O)N1CCN(C(=O)[C@H](CP(=O)(N[C@@H](C)C(=O)OCC)N[C@@H](C)C(=O)OCC)NC(=O)c2csc(-c3ccccc3)n2)CC1 [Example 58, N,N′-Bis-((S)-1-Ethoxycarbonylethyl)-(R)-2-[(2-phenyl-thiazole-4-carbonyl)-amino]-3-oxo-3-(4-butoxy-carbonyl-piperazin-1-yl)-propyl-phosphonic acid diamide] | 1220 |
| CCCCOC(=O)N1CCN(C(=O)[C@H](CCC(=O)O)NC(=O)c2nc(-c3ccccc3)sc2Br)CC1 [Example 15, 4-{(S)-2-[(5-Bromo-2-phenyl-thiazole-4-carbonyl)-amino]-4-carboxy-butyryl}-piperazine-1-carboxylic acid butyl ester] | 41 |
| CCCCOC(=O)N1CCN(C(=O)CNC(=O)c2nc(-c3ccccc3)c(CCCOC)s2)CC1 [Example 52, 4-(2-{[5-(3-Methoxy-propyl)-4-phenyl-thiazole-2-carbonyl]-amino}-acetyl)-piperazine-1-carboxylic acid butyl ester] | 743 |
| CCCCOC(=O)N1CCN(C(=O)CNC(=O)c2nc(-c3ccccc3)sc2NCCC(=O)O)CC1 [Example 61, 4-(2-{[5-(2-Carboxy-ethylamino)-2-phenyl-thiazole-4-carbonyl]-amino}-acetyl)-piperazine-1-carboxylic acid butyl ester] | 71 |
| CCCCOC(=O)N1CCN(C(=O)CNC(=O)c2nc(-c3ccccc3)c(-c3ccccc3)s2)CC1 [Example 50, 4-{2-[(4,5-Diphenyl-thiazole-2-carbonyl)-amino]-acetyl}-piperazine-1-carboxylic acid butyl ester] | 1160 |
